Experimental data published in ChEMBL document CHEMBL5634181, “Genome Mining Leads to Diverse Sesquiterpenes with Anti-inflammatory Activity from an Arctic-Derived Fungus” (J Nat Prod, 2024).
Calls of active or inactive are those of the source. No cut-off for these calls is given here.

Tests used:
RAW264.7 [1] = assay: Antiproliferative activity against LPS-induced mouse RAW264.7 cells assessed as reduction in cell viability > 40 uM incubated for 24 hrs by CCK-8 assay; type: functional, cell-based
RAW264.7 [2] = assay: Anti-inflammatory activity against LPS-Induced mouse RAW264.7 cells assessed as inhibition rate of NO release at 10 uM incubated for 24 hrs relative to control; type: functional
RAW264.7 [3] = assay: Anti-inflammatory activity against LPS-Induced mouse RAW264.7 cells assessed as reduction in NO release at 10 uM incubated for 24 hrs; type: functional, cell-based
RAW264.7 [4] = assay: Cytotoxicity against LPS-induced mouse RAW264.7 cells assessed as effect on cell viability upto to 160 uM incubated for 24 hrs by CCK-8 assay; type: toxicity, cell-based; details: raw264.7, 24 h
RAW264.7 [5] = assay: Anti-inflammatory activity against LPS-induced mouse RAW264.7 cells reduction in TNF-alpha mRNA level by RT-qPCR analysis; type: functional, cell-based; details: dose 20-40 µM
RAW264.7 [6] = assay: Anti-inflammatory activity against LPS-induced mouse RAW264.7 cells reduction in IL-6 mRNA level by RT-qPCR analysis; type: functional, cell-based; details: dose 20-40 µM
RAW264.7 [7] = assay: Anti-inflammatory activity against LPS-induced mouse RAW264.7 cells reduction in IL-1beta mRNA level by RT-qPCR analysis; type: functional, cell-based; details: dose 20-40 µM
RAW264.7 [8] = assay: Anti-inflammatory activity against LPS-induced mouse RAW264.7 cells reduction in IL-18 mRNA level by RT-qPCR analysis; type: functional, cell-based; details: dose 20-40 µM
RAW264.7 [9] = assay: Anti-inflammatory activity against LPS-Induced mouse RAW264.7 cells assessed as suppression of p-p38 expression by Western blot analysis; type: functional, cell-based; details: dose 20-40 µM
RAW264.7 [10] = assay: Anti-inflammatory activity against LPS-Induced mouse RAW264.7 cells assessed as suppression of p-ERK expression by Western blot analysis; type: functional, cell-based; details: dose 20-40 µM
RAW264.7 [11] = assay: Anti-inflammatory activity against LPS-Induced mouse RAW264.7 cells assessed as suppression of p-JNK expression by Western blot analysis; type: functional, cell-based; details: dose 20-40 µM
RAW264.7 [12] = assay: Anti-inflammatory activity against LPS-Induced mouse RAW264.7 cells assessed as suppression of NLRP3 expression at 20 to 40 uM by Western blot analysis; type: functional, cell-based; details: dose 20-40 µM
RAW264.7 [13] = assay: Anti-inflammatory activity against LPS-Induced mouse RAW264.7 cells assessed as suppression of caspase-1 expression at 20 to 40 uM by Western blot analysis; type: functional, cell-based; details: dose 20-40 µM
Danio rerio [14] = species: Danio rerio; assay: Anti-inflammatory activity against CuSO4-induced transgenic Zebrafish acute inflammation model assessed as decrease in migration of inflammatory cells to lateral line at 20 to 40 uM preincubated with CuSO4 for 24 hrs followed by compound addition and measured after 2 hrs by fluorescence microscopic analysis; type: functional, organism-based; details: dose 20-40 µM
Danio rerio [15] = species: Danio rerio; assay: Anti-inflammatory activity against CuSO4-induced transgenic Zebrafish acute inflammation model assessed as zebrafish movement by measuring decrease in total distance at 20 to 40 uM preincubated with CuSO4 for 24 hrs followed by compound addition and measured after 2 hrs by fluorescence microscopic analysis; type: functional, organism-based; details: dose 20-40 µM
Danio rerio [16] = species: Danio rerio; assay: Anti-inflammatory activity against CuSO4-induced transgenic Zebrafish acute inflammation model assessed as zebrafish movement by measuring average velocity at 20 to 40 uM preincubated with CuSO4 for 24 hrs followed by compound addition and measured after 2 hrs by fluorescence microscopic analysis; type: functional, organism-based; details: dose 20-40 µM
Danio rerio [17] = species: Danio rerio; assay: Anti-inflammatory activity against CuSO4-induced transgenic Zebrafish acute inflammation model assessed as decrease in TNF-alpha expression at 20 to 40 uM preincubated with CuSO4 for 24 hrs followed by compound addition and measured after 2 hrs by RT-qPCR analysis; type: functional, organism-based; details: dose 20-40 µM
Danio rerio [18] = species: Danio rerio; assay: Anti-inflammatory activity against CuSO4-induced transgenic Zebrafish acute inflammation model assessed as decrease in IL-6 expression at 20 to 40 uM preincubated with CuSO4 for 24 hrs followed by compound addition and measured after 2 hrs by RT-qPCR analysis; type: functional, organism-based; details: dose 20-40 µM
Danio rerio [19] = species: Danio rerio; assay: Anti-inflammatory activity against CuSO4-induced transgenic Zebrafish acute inflammation model assessed as decrease in IL-1beta expression at 20 to 40 uM preincubated with CuSO4 for 24 hrs followed by compound addition and measured after 2 hrs by RT-qPCR analysis; type: functional, organism-based; details: dose 20-40 µM
Danio rerio [20] = species: Danio rerio; assay: Anti-inflammatory activity against CuSO4-induced transgenic Zebrafish acute inflammation model assessed as decrease in caspase-1 expression at 20 to 40 uM preincubated with CuSO4 for 24 hrs followed by compound addition and measured after 2 hrs by RT-qPCR analysis; type: functional, organism-based; details: dose 20-40 µM
Danio rerio [21] = species: Danio rerio; assay: Anti-inflammatory activity against CuSO4-induced transgenic Zebrafish acute inflammation model assessed as decrease in NLRP3 expression at 20 to 40 uM preincubated with CuSO4 for 24 hrs followed by compound addition and measured after 2 hrs by RT-qPCR analysis; type: functional, organism-based; details: dose 20-40 µM

SMILES	Activity (RAW264.7 [1])	Activity (RAW264.7 [3])	other results
CC(C)=CCC[C@](C)(O)[C@@H]1CC=C(C)[C@@H](O)[C@H]1O	inactive	–	–
C[C@@H]1C[C@H]2[C@@H]3CCC4=CC(=O)C=C[C@]4(C)[C@@]3(F)[C@@H](O)C[C@]2(C)[C@@]1(O)C(=O)CO [DEXAMETHASONE]	inactive	–	inhibition at 10 µM (RAW264.7 [2]): 72%
C=C1[C@H](O)CC[C@]2(C)CC[C@@H](C(C)(C)O)C[C@@H]12	inactive	–	–
CC1=CC[C@@H]([C@@](C)(O)C/C(C)=C/[C@H](C)O)[C@@H](O)[C@H]1O	inactive	–	–
CC(C)=C[C@H](O)C[C@]1(C)[C@@H]2C[C@H]1C(C)=CC2=O	inactive	–	–
CO[C@]1([C@H](O)[C@@H](O)CC=C(C)C)C=CCC(C)=C1C	inactive	–	–
CC1=CC[C@@H]2[C@H](O)COC/C(C)=C\[C@@H](O)C[C@]12C	inactive	–	–
CC1=CC(=O)C[C@@]2(C)CC[C@H](C(C)(C)O)C[C@H]12	inactive	Active	–
CC1=C2C[C@H](C(C)(C)O)CC[C@@]2(C)CCC1=O	Active	–	–
CC(C)=CCC[C@](C)(O)[C@@H]1CC=C(C)[C@@H](O)C1	inactive	Active	–
CC(C)=C[C@H]1C[C@@](C)(O)[C@@H]2[C@@H](CC=C(C)[C@@H]2O)O1	inactive	–	–
C=C1C[C@H](O)C[C@]2(C)CC[C@@H](C(C)(C)O)C[C@@H]12	inactive	–	–
CC1=CC(=O)[C@H]2C[C@@H]1[C@]2(C)C/C=C/C(C)(C)O	Active	–	–
CC(C)=C[C@H]1C[C@@](C)(O)[C@H]2CC=C(C)[C@@H](O)[C@H]2O1	inactive	Active	–
Cc1ccc([C@@](C)(O)C/C=C/C(C)(C)O)cc1	inactive	Active	–
CC1=CC[C@@]2(C[C@H]1O)[C@H](C)CC[C@@H]2C(C)CO (stereo partly specified)	inactive	Active	inhibition at 10 µM (RAW264.7 [2]): 65%; Activity (RAW264.7 [4]): Non-Toxic; Activity (RAW264.7 [5]): Dose-Dependent Effect; Activity (RAW264.7 [6]): Dose-Dependent Effect; Activity (RAW264.7 [7]): Dose-Dependent Effect; Activity (RAW264.7 [8]): Dose-Dependent Effect; Activity (RAW264.7 [9]): Dose-Dependent Effect; Activity (RAW264.7 [10]): Dose-Dependent Effect; Activity (RAW264.7 [11]): Dose-Dependent Effect; Activity (RAW264.7 [12]): Active; Activity (RAW264.7 [13]): Active; Activity (Danio rerio [14]): Active; Activity (Danio rerio [15]): Active; Activity (Danio rerio [16]): Active; Activity (Danio rerio [17]): Active; Activity (Danio rerio [18]): Active; Activity (Danio rerio [19]): Active; Activity (Danio rerio [20]): Active; Activity (Danio rerio [21]): Active
